Patent US12564588B2, “HECT E3 ubiquitin liagase inhibitors and uses thereof” (Northwestern University, priority 2021, dated 2026)

Assays:
UBE3A [1] = target: T1, UBE3A (Homo sapiens, UniProt Q05086); assay: in vitro ubiquitination assay (polyubiquitination of S5A); format: biochemical; conditions: for IC50: S5A polyubiquitination, varying concentrations, estimated / preliminary; for inhibition of UBE3A-mediated polyubiquitination of S5A: compound at 100 μM, western/immunoblot readout
T1 sequence (Q05086 24-875 limits assumed): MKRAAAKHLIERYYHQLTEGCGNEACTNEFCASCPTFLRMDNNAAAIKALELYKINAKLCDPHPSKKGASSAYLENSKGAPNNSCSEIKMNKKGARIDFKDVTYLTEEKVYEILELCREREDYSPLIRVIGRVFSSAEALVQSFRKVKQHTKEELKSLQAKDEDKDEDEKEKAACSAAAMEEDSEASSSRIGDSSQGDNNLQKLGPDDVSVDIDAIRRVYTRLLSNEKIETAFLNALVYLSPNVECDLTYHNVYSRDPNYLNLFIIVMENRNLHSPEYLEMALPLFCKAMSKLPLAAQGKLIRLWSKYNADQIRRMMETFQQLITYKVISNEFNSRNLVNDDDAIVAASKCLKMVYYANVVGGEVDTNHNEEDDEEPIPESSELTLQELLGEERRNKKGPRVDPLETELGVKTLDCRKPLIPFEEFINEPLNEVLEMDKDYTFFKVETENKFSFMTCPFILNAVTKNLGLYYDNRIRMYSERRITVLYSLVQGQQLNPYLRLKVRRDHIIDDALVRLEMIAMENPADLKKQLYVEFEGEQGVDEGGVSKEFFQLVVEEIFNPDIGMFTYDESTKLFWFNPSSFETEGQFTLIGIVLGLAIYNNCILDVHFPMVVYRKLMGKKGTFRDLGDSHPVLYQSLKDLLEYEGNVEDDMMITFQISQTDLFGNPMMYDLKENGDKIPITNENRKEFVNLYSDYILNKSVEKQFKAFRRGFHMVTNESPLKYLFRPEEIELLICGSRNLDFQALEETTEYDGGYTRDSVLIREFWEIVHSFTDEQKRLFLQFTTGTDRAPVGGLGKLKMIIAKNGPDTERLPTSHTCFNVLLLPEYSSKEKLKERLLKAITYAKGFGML
Protocol: FIG. 3A-B. Identification of a potential UBE3A inhibitor compound by in vitro ubiquitination assay. (A). Purified UBA1 (E1), UBE2L3 (E2) and UBE3A (E3) were pre-incubated with each compound at 100 uM, followed by incubation with purified ubiquitin (Ub) and S5A in the presence of ATP. […] NC, negative control without active UBE3A; PC, positive control with active UBE3A but with no small molecule. (B). Structure of #3 compound (Zinc 23375107).
FIG. 4A-B. Screening for compounds that are structurally analogous to #3 compound and could bind to the druggable hotspot of the UBE3A HECT domain. Left panel (A): Purified UBA1 (E1), UBE2L3 (E2) and UBE3A (E3) were pre-incubated with structural analogs of #3 compound at 100 μM, followed by incubation with purified ubiquitin (Ub) and S5A in the presence of ATP.
FIG. 5A-B. Inhibition of the E3 activity of UBE3A by various concentrations of compound #3 and #3-1. The UBE3A activity was assayed by the in vitro ubiquitination assay using S5A as a substrate and the indicated concentrations of compound #3 (A) or #3-1 (B). The polyubiquitinated forms of S5A were quantified by western analysis.
We purchased 35 compounds among the 46 hits identified by the initial virtual screen, and tested their abilities to modulate the ubiquitin ligase activity of UBE3A. The in vitro ubiquitination assay was developed using purified ubiquitin (Ub), Uba1 (E1), UbcH7/UBE2L3 (E2), UBE3A (E3), and S5A/Angiocidin/PSMD4 (substrate), as a modification of our previously reported assay (19). The purchased compounds were dissolved in DMSO to generate a stock solution at 10 mM, and then their effects on UBE3A activity were tested by adding each compound at a final concentration of 100 μM. E1, E2 and E3 enzymes were first pre-incubated at 37° C. for 30 min in a buffer containing MgCl2, ATP and each compound. Subsequently, ubiquitin and S5A were added to the reaction and incubated for 60 more minutes. Samples were then analyzed by SDS-PAGE and immunoblotting, and polyubiquitination of the substrate S5A was determined as specific appearance of forms of anti-S5A immunoreactivity at higher molecular weights.

[2] = target: T2, recombinant UBE3A HECT domain (Homo sapiens, UniProt Q05086); assay: fluorescence thermal shift analysis (FTS); format: binding; conditions: 0.5 uM UBE3A, Hepes buffer pH7.5, Tm shifted to lower temperature
T2 construct: a truncated UBE3A protein (residues 495-852 of isoform 1) using E. coli; made in house; host or cells: E. coli
T2 sequence (Q05086 518-875): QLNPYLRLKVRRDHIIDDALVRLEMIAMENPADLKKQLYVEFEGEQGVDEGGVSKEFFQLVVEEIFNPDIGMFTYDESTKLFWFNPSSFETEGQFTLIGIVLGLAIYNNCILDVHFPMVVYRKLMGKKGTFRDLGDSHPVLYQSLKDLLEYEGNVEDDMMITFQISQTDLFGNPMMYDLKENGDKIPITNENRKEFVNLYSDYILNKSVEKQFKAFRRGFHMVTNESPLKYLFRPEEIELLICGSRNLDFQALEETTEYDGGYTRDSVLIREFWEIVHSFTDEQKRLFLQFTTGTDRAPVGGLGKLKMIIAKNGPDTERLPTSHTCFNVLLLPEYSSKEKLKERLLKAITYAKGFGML
Source text: FIG. 6A-B. Fluorescence thermal shift analysis of recombinant UBE3A HECT domain with the compound #3-1. (A) Melting curves of recombinant UBE3A HECT domain with multiple concentrations of #3-1 show the melting temperature Tm was shifted to lower temperature progressively with increase in #3-1 concentration. The rise of pre-transition background reading indicates destabilizing of the protein by the small molecule inhibitor, which is consists with the decrease of Tm by the compound. (B) Plot of normalized melting curves with respect to compound concentrations. The compound #3-1 shifts the melting temperature in a significant fashion, indicating specific binding. For example, the Tm is shifted 2.5 degree by 15 uM #3-1 and 5.1 degree by 25 uM #3-1 from the reference value. The test was done with 0.5 uM UBE3A in Hepes buffer (20 mM Hepes, 150 mM NaCl, pH7.5).
To verify the physical interaction between the HECT domain of UBE3A and the identified compounds and also develop a high throughput assay for further screening, we have developed a fluorescence thermal shift analysis (FTS). we have prepared a truncated UBE3A protein (residues 495-852 of isoform 1) using E. coli and performed preliminary FTS test (FIG. 6). […] Small molecule binding affects protein thermal stability, therefore can be detected through a shift in protein's thermal denaturation (melting) temperature (Tm).

HeLa cells = assay: cytotoxicity in HPV-positive cervical cancer cells (alamarBlue cell viability); format: cell-based; conditions: Homo sapiens, 72 hrs incubation
Protocol: FIG. 7. Cytotoxicity of the hit compound #3-1 in HPV-positive cervical cancer cells. HPV18-positive human cervical cancer HeLa cells were incubated for 72 hrs with the compound #3-1 at the indicated concentrations, followed by determination of cell viability by the alamarBlue™ HS Cell Viability Reagent (Thermo). Data are shown as means±SEM, and the EC50 is estimated to be 30 μM.
We have recently tested whether the compound #3.1 exert any cytotoxic action in HPV-positive cancer cells. Human cervical carcinoma HeLa cells are a widely used HPV18-positive cell lines. We incubated HeLa cells with the compound #3.1 at various concentrations for 72 hours and determined viability of the cells (FIG. 7). This study has shown that the compound #3.1 exerts cytotoxicity in a dose-dependent manner with EC50 at 30 μM.

UBE3A [3] = target: T1, UBE3A; conditions: blocks UBE3A oligomerization by substituting Phe727; cited from earlier work

| SMILES | IC50 (UBE3A [1]) | inhibition of UBE3A-mediated polyubiquitination of S5A (UBE3A [1]) | inhibition of UBE3A-mediated polyubiquitination of S5A (UBE3A [1]; listed as Zinc 23375107) | inhibition of UBE3A-mediated polyubiquitination of S5A (UBE3A [1]; listed as #3.1) | Tm shift from the reference value ([2]; 15 uM compound) | Tm shift from the reference value ([2]; 25 uM compound) | EC50 (HeLa cells) | Ki (UBE3A [3]) |
| --- | --- | --- | --- | --- | --- | --- | --- | --- |
| COc1ccc(CNCC2CCOCC2)c(OCC(O)CN2CCN(C)CC2)c1 (stereo not shown) [#3, 1-(5-methoxy-2-{[(tetrahydro-2H-pyran-4-ylmethyl)amino]methyl}phenoxy)-3-(4-methyl-1-piperazinyl)-2-propanol] | ~100 µM | inhibited formation of PolyUb-S5A | significantly inhibits polyubiquitination of S5A | – | – | – | – | – |
| COc1ccc(CNCc2cccc(C)c2)c(OCC(O)CN2CCN(C)CC2)c1 (stereo not shown) [#3-1, 1-(5-methoxy-2-{[(3-methylbenzyl)amino]methyl}phenoxy)-3-(4-methyl-1-piperazinyl)-2-propanol] | ~10 µM | capable of inhibiting the UBE3A-mediated polyubiquitination of S5A substrate | – | inhibited formation of PolyUb-S5A | 2.5 degree | 5.1 degree | 30 µM | – |
| CC(=O)N[C@@H](Cc1ccccc1)C(=O)O [N-acetyl phenylalanine] | – | – | – | – | – | – | – | 12000 µM |
